Experimental data published in patent publication US11180510B2, “Xanthine derivatives and uses thereof as inhibitors of bromodomains of BET proteins” (Centre national de la recherche scientifique, priority 2017, dated 2021).

Columns and labels:
BRD4(BD1) [1] = biological target: T1, BRD4(BD1) (Homo sapiens, UniProt O60885); assay: HTRF assay, BRD4(BD1)/histone peptide interaction; format: binding; set-up: made in house
c-Myc [2] = assay: c-Myc HTRF, Jurkat cell line; format: cell-based, human
Experimental: (§1) For additional evaluation of the effect of 43c in cell assays, an influence of the molecule on c-Myc expression was determined by c-Myc HTRF. c-Myc is a proto-oncogene that is often overexpressed in cancer. This leads to the increased expression of many genes, involved in cell proliferation, contributing to cancer development. Downregulation of c-Myc is considered as a promising approach for anticancer treatment.

BRD4(BD1) [3] = biological target: T1, BRD4(BD1); assay: Thermal shift assay (BromoMELT), Brd4 (BD1); format: binding; details: compound at 25 μM, cut-off +/−3.5° C.
Experimental: FIG. 3. Thermal Shift Assay (TSA) of 43c. The evaluation was performed on 61 bromodomains. A cut-off at +/−3.5° C. was set.
TSA “Bromoscan” assays (Reaction Biology) were performed in 384 well RT-PCR plate (BioRad) with a total working volume of 15 μL. The “BromoMelT™, containing the 61 GST- or His-tagged-bromodomains, SYPRO® Orange and a mix compounds as control, was purchased from Reaction Biology. For each point, 3 μL of protein (1×) and 12 μL master mix (buffer+SYPRO® Orange+compound at 25 μM or control mix compounds or DMSO (0.5%)) were mixed in plate. The plate was placed in a CFX384 RTQPC (BioRad), and heated 10 seconds at 25° C., then the temperature was increased from 25° C. to 90° C., by increment of 0.5° C. every 30 seconds. The fluorescence was recorded using FRET filters.

Brd3(BD1) = Brd3(BD1) (Homo sapiens, UniProt Q15059); assay: HTRF BET selectivity profile, Brd3(BD1); format: binding; set-up: GST tagged bromodomain proteins were purchased from BPS Bioscience; purchased BPS Bioscience
Sequence of Brd3(BD1) (Q15059 34-140 limits assumed): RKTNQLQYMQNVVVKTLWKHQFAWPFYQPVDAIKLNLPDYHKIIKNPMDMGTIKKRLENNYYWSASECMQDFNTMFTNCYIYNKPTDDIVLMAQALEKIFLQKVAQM

Brd2(BD1) = biological target: T2, Brd2(BD1) (Homo sapiens, UniProt P25440); assay: HTRF BET selectivity profile, Brd2(BD1); format: binding
T2 construct: GST tagged bromodomain proteins were purchased from BPS Bioscience; purchased BPS Bioscience
T2 sequence (P25440 74-180 limits assumed): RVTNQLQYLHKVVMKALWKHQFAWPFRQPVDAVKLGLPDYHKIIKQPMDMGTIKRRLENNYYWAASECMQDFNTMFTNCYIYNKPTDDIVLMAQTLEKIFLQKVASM

Molm14 cells = assay: Cell Titer-Glo cell viability assay, Molm14; format: cell-based; details: Homo sapiens, MOLM-14, 72 h, mean of three experiments, NA = IC50 > maximal concentration used
Experimental: The human leukemia cell line Jurkat (ATCC® TIB-152) and Molm14 was maintained in RPMI-1640 medium or MEMα, respectively and supplemented both with 10% FBS at 37° C. and 5% CO2.
In antiproliferative assays, compounds were assayed for their growth inhibiting activity towards the described cancer cell lines using the Cell Titer-Glo Luminescent Cell Viability Assay as described by the manufacturer (Promega Corporation). Briefly, 10.000 cells were plated onto 96 well-plates (white with clear bottom (3610, Corning Costar)) in 90 μL media per well immediately before assay. 10 μL of compounds were added at different concentrations (ranging from 50 μM to 6 nM) to each well and cell cultures were incubated 37° C. during 72 h. Vehicle (DMSO) was used as negative control, JQ1 (a pan-BET inhibitor) was used as positive control and all compounds were tested in constant percentage of DMSO (1%). After addition of 50 μL Cell Titer-GLO, shaking 2 minutes and incubating at room temperature 10 minutes, the Luminescence was measured using a Centro luminometer LB960 (Berthold). Dose-response curves were generated and effective dose 50 values (EC50) were calculated using non-linear regression analysis (Graph Pad Prism).

Brd2(BD2) = biological target: T3, Brd2(BD2) (Homo sapiens, UniProt P25440); assay: HTRF BET selectivity profile, Brd2(BD2); format: binding; details: read-out: Brd2(BD2) IC50
T3 construct: GST tagged bromodomain proteins were purchased from BPS Bioscience; purchased BPS Bioscience
T3 sequence (P25440 344-453 limits assumed): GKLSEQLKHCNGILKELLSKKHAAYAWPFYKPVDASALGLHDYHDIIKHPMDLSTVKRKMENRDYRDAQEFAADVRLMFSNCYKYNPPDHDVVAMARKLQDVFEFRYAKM

Brd3(BD2) = biological target: T4, Brd3(BD2) (Homo sapiens, UniProt Q15059); assay: HTRF BET selectivity profile, Brd3(BD2); format: binding
T4 construct: GST tagged bromodomain proteins were purchased from BPS Bioscience; purchased BPS Bioscience
T4 sequence (Q15059 306-415 limits assumed): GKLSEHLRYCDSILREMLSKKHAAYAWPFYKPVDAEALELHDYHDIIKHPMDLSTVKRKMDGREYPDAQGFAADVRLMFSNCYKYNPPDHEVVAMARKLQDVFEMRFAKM
Procedure, shortened: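 HTRF peptide-displacement assay with GST-tagged bromodomains and histone peptide, 0.5% final DMSO, incubated 3 h, 6 h or overnight at room temperature or 4 °C depending on bromodomain. 665/620 nm ratio read; inhibition scaled between DMSO and no-peptide controls, IC50 in triplicate.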

c-Myc [4] = assay: c-Myc HTRF, CEM cell line; format: cell-based
Experimental: as §1

Q: CCn1cnc2c1c(=O)[nH]c(=O)n2Cc1ccc(CNS(=O)(=O)c2ccc(OC3CCOCC3)c(F)c2)cc1 [Compound 43c] was tested. Which IC50 (BRD4(BD1) [1]; HTRF, mean of three experiments, NA = IC50 > 50 μM, read-out: Brd4(8D1) IC50) did it give?
A: The IC50 was 74 nM.

Q: What about the “Ratio 4-1 vs 4-2” value (BRD4(BD1) [1]; selectivity Brd4(BD1) vs Brd4(BD2), HTRF IC50) of the same compound?
A: Its value is 31.

Q: What about the “concentration at which c-Myc is downregulated, Jurkat” value (c-Myc [2]) of the same compound?
A: The value was 2.4 µM.

Q: And the ΔTm at 25 µM (BRD4(BD1) [3])?
A: Its ΔTm at 25 µM is 5.25 °C.

Q: What about the IC50 (Brd3(BD1)) of the same compound?
A: Its IC50 is 132 nM.

Q: And the “Ratio 3-1 vs 3-2” value (Brd3(BD1); selectivity Brd3(BD1) vs Brd3(BD2), HTRF IC50)?
A: Its value is 16.

Q: What about the IC50 (Brd2(BD1); read-out: Brd2(BD1) IC50) of the same compound?
A: The IC50 was 183 nM.

Q: What about the “Ratio 2-1 vs 2-2” value (Brd2(BD1); selectivity Brd2(BD1) vs Brd2(BD2), HTRF IC50) of the same compound?
A: The value was 7.

Q: And the IC50 (Molm14 cells)?
A: The IC50 was 6100 nM.

Q: And the IC50 (Brd2(BD2))?
A: The IC50 was 1220 nM.

Q: What about the IC50 (Brd3(BD2)) of the same compound?
A: Its IC50 is 2170 nM.

Q: And the “concentration at which c-Myc is downregulated, CEM” value (c-Myc [4])?
A: The value was 2.6 µM.
